Results on five sequences are retold here after publication PMC10883292, “Estrogen Receptor Mutations as Novel Targets for Immunotherapy in Metastatic Estrogen Receptor–positive Breast Cancer” (Cancer Research Communications, 2024).

For data set [1], the target named is T1, HLA-A*0201 on T2 cells (Homo sapiens, UniProt P04439, D140Y/D185E/D98H/E176V/E277Q/G131W/G231S/I119V/I121R/I166T/I218V/L300P/L318F/N151K/N90K/P208A/P217A/Q86G/Q94H/R138H/R169H/T345S).
T1 construct: T2 cells were pulsed with indicated peptides for 8–12 hours, washed, and then stained for surface HLA-A*0201 expression; host or cells: T2 cells
Nature of the data set: T2 dissociation (stability) assay. Format: cell-based. The conditions noted are these: peptide:HLA-A*0201 dissociation; T2 cells pulsed 8–12 hours, washed; MFI normalized to time 0; linear regression; three independent experiments in triplicate. The procedure:
T2 binding assays were performed as described previously ([23]). […] Surface expression of HLA-A*0201 in T2 cells was determined by staining with an anti-HLA-A2 mAb (BB7.2, BD Biosciences). The median fluorescence intensity (MFI) was measured using a FACSCando II (BD Biosciences). The peptide half-life was calculated by linear regression using GraphPad Prism software.
FIGURE 2 Kinetics of peptide: HLA-A*0201 dissociation. T2 cells were pulsed with indicated peptides for 8–12 hours, washed, and then stained for surface HLA-A*0201 expression at indicated timepoints for wildtype-1 and E380Q (A), wildtype-2 and Y537S (B), wildtype-2 and D538G (C). MFI for each timepoint was normalized to initial staining (time = 0). Linear regression analysis was used to plot lines of best fit for each individual peptide, and half-life for each peptide is shown in Table 2. Data are pooled from three independent experiments performed in triplicate.

Data set [2] has as its system peptide-specific CD8+ T cells from PBMC of healthy female HLA-A2 positive donors. Briefly: Peptide-specific CTL tetramer assay and expansion. Format: cell-based, human. The conditions noted are these: for tetramer expansion: post- vs pre-expansion, in words; for average frequency fold change (vs. pre-expansion): after CTL expansion with peptide-pulsed DCs, IL7, IL2; for average frequency fold change (vs. pre-expansion) / average frequency of peptide-specific CTLs in peripheral blood: tetramer staining; for average frequency of peptide-specific CTLs in peripheral blood: pre-expansion, PBMC of healthy females, 3 donors. From the text:
Healthy donor peripheral blood samples were purchased from the local blood bank and used under an MD Anderson Cancer Center Institutional Review Board–approved protocol. Because the samples came from deidentified healthy donors, the Institutional Review Board determined that informed consent was not required. Peripheral blood mononuclear cells (PBMC) were isolated from buffy coats of healthy female HLA-A2 positive donors by Ficoll/Histopaque (Sigma-Aldrich) density gradient centrifugation and split equally into two groups. One group of PBMC was used to assess the pre-expansion frequency of the peptide-specific CTLs. These cells were immediately stained with FITC-conjugated anti-CD3 and APC-H7–conjugated anti-CD8 to select for CD8^+ T cells. Pacific blue (PB)-conjugated anti-CD4, anti-CD14, anti-CD16, anti-CD19, and anti-CD56 (BD Biosciences) were used as a dump gate to gate out other immune cell types; PE-conjugated mutant peptide and APC-conjugated wild-type peptide tetramers (Baylor College of Medicine, MHC tetramer core, Houston, TX) were used to enumerate the percentage of peptide-specific CD8^+ T cells present in healthy PBMCs. The analysis was performed using flow cytometry.
The second group of donor PBMC was used to assess the expansion potential of the peptide-specific CTLs. To expand peptide-specific CTLs, dendritic cells (DC) were matured from adherent monocytes by the addition of GMCSF (100 ng/mL, Sanoti), IL4 (50 ng/mL, rhIL4, Tonbo Biosciences), and TNFα (25 ng/mL, BioLegend). Lymphocytes from the same donor were separated and cocultured with 40 µg/mL of mutant and wild-type peptides. After 5 days, DCs were harvested and cocultured with autologous CD8^+ T cells for an additional 7 days. The cocultured cells were supplemented with IL7 (10 ng/mL; BioLegend) for CTL activation and IL2 (25 ng/mL; R&D Systems) for CTL expansion. After CTL activation and expansion, cells were stained and analyzed as described above.
FIGURE 3 Peptide-specific expansion of CD8^+ T cells. PBMCs from healthy donors were isolated and expanded as described in the Materials and Methods. Tetramer staining was performed pre- and post-expansion to quantify frequencies of peptide-specific CD8^+ T cells. A, Wildtype-1, E380Q. B, Wildtype-2, Y537S, D538G. Data represents three independent experiments, from 3 separate donors, performed in triplicate. Statistical significance was determined via comparison of pre-expansion versus post-expansion CD8^+tetramer^+ population using unpaired Student t test. *, P < 0.05.

Data set [3] has as its system peptide-pulsed T2 cells. Briefly: Calcein-AM release cytotoxicity assay, peptide-pulsed T2 cells. Format: cell-based, human. The conditions noted are these: 20:1 effector:target ratio, 4-hour calcein-AM release, T2 cells pulsed with corresponding peptide, peptide-specific CTLs from healthy female donors. As for the experimental part: Healthy donor lymphocytes and DCs were cocultured in 6-well plates supplemented with IL7 and IL2, as described above. On days 12–14, cultured peptide-specific CTLs were harvested and peptide-specific cytotoxicity was assessed using a standard 4-hour Calcein-AM (Sigma-Aldrich) release assay as described previously ([24]). Briefly, target cells, including T2 cells pulsed with mutant and wild-type peptides, were labeled with 5 µg/mL calcein-AM for 15 minutes in the dark. After two washes, cells were adjusted to 2 × 10^5/mL, plated on a Terasaki plate, and cocultured with peptide-specific CTLs at effector:target ratios of 20:1 and 5:1. After 4 hours of incubation, Trypan blue was added to quench the reaction. The fluorescence was measured using a Cytation 3 Imaging Reader (BioTek). The percentage of specific cell lysis was calculated using the following formula: […]
T2 cells were pulsed with corresponding peptides and labeled with calcein-AM. Cytotoxicity was determined by a standard calcein-AM release assay. Wildtype-1 (A), E380Q (B), Wildtype-2 (C), Y537S (D), D538G (E). Non-pulsed T2 cells were used as negative controls. Statistical significance was determined via unpaired Student t test. Data represent the average of three to four experiments from separate healthy female donors run in triplicate. *, P < 0.05; ***, P < 0.001.

As to “LLECAWLEI [Wildtype-1, wild-type ESR1-derived nonameric peptide associated with E380Q]”, in data set [1], the “Half-Life” value came to 5.4 h. The tetramer expansion entry in data set [2] is “did not show tetramer expansion”. Also, in data set [3], the specific cytotoxicity is reported as 25.99%.
With “LLQCAWLEI [E380Q, ESR1-derived nonameric peptide with E380Q mutation]”, in data set [1], the “Half-Life” value worked out at 7.2 h. Moreover, in data set [2], the “average frequency fold change (vs. pre-expansion)” value (shortened to “average frequency fold change”) is listed as 5.77 fold and the “average frequency of peptide-specific CTLs in peripheral blood” value (shortened to “average frequency … in peripheral blood”) was 0.03%. Further, the specific cytotoxicity in data set [3] was 28.45%.
On to “PLSDLLLEM [Y537S, ESR1-derived nonameric peptide with Y537S mutation]”, for which the “Half-Life” value in data set [1] was 6.2 h. Moreover, in data set [2], the “average frequency fold change” value is listed as 4.85 fold and the “average frequency … in peripheral blood” value is given as 0.18%. Moreover, the specific cytotoxicity in data set [3] is given as 30.03%.
With “PLYDLLLEM [Wildtype-2, wild-type ESR1-derived nonameric peptide associated with Y537S and D538G]”, the “Half-Life” value in data set [1] turned out to be 5.9 h. In addition, the tetramer expansion result in data set [2] is “modest expansion”. The specific cytotoxicity in data set [3] is 13.27%.
In the case of “PLYGLLLEM [D538G, ESR1-derived nonameric peptide with D538G mutation]”, the “Half-Life” value in data set [1] came to 6.0 h. In data set [2], the “average frequency fold change” value turned out to be 4.31 fold and the “average frequency … in peripheral blood” value turned out to be 0.17%. Moreover, in data set [3], the specific cytotoxicity is listed as 30.48%.
